Data published in paper PMC9778984, “5′-Chalcogen-Substituted Nucleoside Pyrophosphate and Phosphate Monoester Analogues: Preparation and Hydrolysis Studies” (International Journal of Molecular Sciences, 2022).

Assays:
[1] = Hydrolysis of dinucleoside pyrophosphates at 90 °C, analysed by CZE and RP-HPLC; type: physicochemical; details: for half-life of the total disappearance: neutral conditions; for rate constant for the decomposition of the deadenylation (depurination) product / rate constant for the formation of the deadenylation (depurination) product: kinetics of parallel and consecutive reactions
Protocol: Reactions of pyrophosphates dASppA (1a) and 3′,5′-dTSppA (3) were studied at 90 °C. Samples taken from reaction solutions were analysed by two methods: capillary zone electrophores (CZE) and reversed-phase HPLC (RP-HPLC), for detection of polar and neutral reaction components, respectively. […] In general, the reactivity of 1a and 3 is low; the half-lives under neutral conditions are measured in tens of days even at 90 °C. The rate of the total disappearance of thiopyrophosphates 1a and 3 is practically pH-independent between pH 6 to 9. The reactivity increases at a lower pH; under alkaline conditions, the rate-enhancement is more modest.
Kinetic experiments with dinucleoside pyrophosphates 1a,b and 3 have been carried out using methods that have been reported previously, and are only briefly described below. Other experimental methods are described in detail in the Supplementary Materials (Figures S1 and S2, Tables S1 and S2).
Capillary zone electrophoretic (CZE) analysis was carried on an HP ^3DCE or on a Beckman Coulter P/ACE MDQA equipment. A fused silica capillary (57 cm effective length, 75 μm i.d.) was used. The background electrolyte was a 25 mM potassium phosphate buffer (pH 7.2). A voltage of 25–30 kV was applied and the compounds were detected at […] (HP) or 254 nm (Beckman).
RP-HPLC analysis was carried on an Agilent 1100 HPLC equipped with a DAD-detector. A Supelcosil LC-18 column (25 × 0.4 cm, particle size 5 μm) was used to separate reaction components. Eluents were mixtures of acetonitrile (MeCN) (Honeywell, Germany) and acetate buffer (0.05 M, pH 4.3) containing 0.1 M ammonium chloride (Sigma-Aldrich, Seelze, Germany). The gradient program used in routine analysis was as follows: 0–10 min isocratic 5% MeCN, 10–20 min a linear gradient to 33% MeCN, 20–30 min isocratic 33% MeCN, 30–35% a linear gradient to 5% MeCN. Flow rate was 1 mL/ min. UV-active compounds were detected at 260 nm.
Rate constants were calculated by applying the integrated first-order rate law to the disappearance of the starting material. Rate constants for the formation and decompositions of products were calculated by applying the rate law of parallel and consecutive reactions. In the case of 2, the concentration of the starting material and products were determined using calibration curves based on authentic samples. Diphenyl phosphate was used as an internal standard in reactions.

[2] = pKa of the phosphoryl moieties by 31P NMR titration; type: physicochemical; details: from Pβ resonance shift on acidification of aqueous solution; represents a maximum pKa value
Protocol: (§1) In order to further assess the potential for chalcogen-substituted pyrophosphate linkages to enable targeted drug delivery, the pKa values of the phosphoryl moieties were assessed using ^31P NMR titration. […] Similar values were determined for dTChppA (3.2 for 2a; 3.4 for 2b) although maximal shifts of 0.2 ppm were observed and a second inflection at ca. pH 8.5 may indicate that the shifts reflect nucleobase ionisation as significant intramolecular base stacking occurs in AppA and other dinucleoside pyrophosphates. However, the titrations’ inflections represent a maximum pKa value and therefore indicate that these moieties will be fully charged at physiological pH. We therefore briefly compared the cleavage of these pyrophosphates using snake venom monitoring the reactions of NADH, dTSppA (2a) and dTSeppA (2b) by ^31P NMR. Over 95% consumption of the native pyrophosphate substrate was observed consumed within one hour. In contrast, ca. 25% and 20% of the sulfur- and selenium-substituted analogues were cleaved during this timeframe. […] In contrast, digestion of dTSeppA plateaued at ca. 45% which may result from denaturation of the protein following release of 5′-dTSeMP and subsequent spontaneous hydrolysis to the corresponding selenol and its subsequent interaction with the active site zinc dyad and disulfide linkages.

snake venom (SVPDE) = assay: Snake venom (SVPDE) digestion monitored by 31P NMR; type: biochemical; details: for mM consumed (31P NMR): 10 mM substrate, 37 °C, pH 7.5; for substrate consumed (digestion): over the subsequent 14 h; for substrate consumed (cleaved): within one hour
Protocol: as §1
To a solution of 10 mM substrate (NADH/dTSppA (2a)/dTSeppA (2b)) in aqueous buffer (TrisꞏHCl (50 mM, pH 7.5), NaCl (50 mM), 1mM MgCl2ꞏ(H2O)6) was added a solution of snake venom 0.2 mg/µL (10 µL). The reaction mixtures were incubated at 37°C for 30 minutes. Digestion was monitored by 31P NMR. dX(Ch)ppA SV P D digestion […]
mM NADH mM dTSppA mM dTSeppA time/h consumed time/h consumed time/h consumed

[3] = Hydrolysis of nucleotides (phosphorus-chalcogen bond cleavage of monoesters) in aqueous buffer, monitored by 31P NMR; type: physicochemical; details: for ΔH^‡ of phosphorus-chalcogen bond cleavage / ΔS^‡ of phosphorus-chalcogen bond cleavage: neutral pH, Eyring parameters from variable temperature NMR
Protocol: Novel sulfur and selenium substituted 5′,5′-linked dinucleoside pyrophate analogues were prepared in a vibration ball mill from the corresponding persilylated monophosphate. The chemical hydrolysis of pyrophosphorochalcogenolate-linked dimers was studied over a wide pH-range. […] The chemical stability of the precursor phosphorochalcogenolate monoesters was also investigated. […] The rate of dephosphorylation was dependent upon both the nature of the chalcogen and the pH. The integrity of the P-S bond in the corresponding phosphorothiolate was maintained at high pH but rapidly degraded at pH 3. In contrast, P-Se bond cleavage of the phosphoroselenolate monoester was rapid and the rate increased with alkalinity. The results obtained in kinetic experiments provide insight on the reactivity of the novel pyrophosphates studied as well as of other types of thiosubstituted biological phosphates.
Evidence for a dissociative transition state can be seen in the Eyring parameters derived from variable temperature NMR analysis of the phosphorus-chalcogen bond cleavage kinetics at 29 8K, 308 K and 318 K under neutral pH conditions. Thus, positive ΔS^‡ values of 79 and 35 J mol^−1 K^−1 were determined for 5′-dTSMP (4a) and 5′-dTSeMP (4b), respectively.

[4] = as above; type: physicochemical

SMILES: Nc1ncnc2c1ncn2[C@@H]1O[C@H](COP(=O)(O)OP(=O)(O)SC[C@H]2O[C@@H](n3cnc4c(N)ncnc43)[C@H](O)[C@@H]2O)[C@@H](O)[C@H]1O [1a, 5′-Thioadenosine 5′-Pyrophosphate (P′→5′) adenosine]
- half-life of the total disappearance ([1]; 90 °C): tens of days
- rate constant of the total disappearance ([1]; pH 2, 90 °C): 9.3e-05 s⁻¹
- phosphate hydrolysis rate constant relative to that reported for Ap2A (1c) ([1]; pH 2, 90 °C, same conditions, Ap2A value from ref 33): six times larger
- rate constant of phosphate hydrolysis ([1]; pH 2, 90 °C, total disappearance divided, assuming the two deadenylation routes are equally fast): 5.5e-05 s⁻¹
- pKa [2]: 3

SMILES: Nc1ncnc2c1ncn2[C@@H]1O[C@H](COP(=O)(O)OP(=O)(O)[Se]C[C@H]2O[C@@H](n3cnc4c(N)ncnc43)[C@H](O)[C@@H]2O)[C@@H](O)[C@H]1O [1b, 5′-deoxy-5′-selenoadenosine 5′-pyrophosphate (P′ →5′) adenosine]
- rate constant of the total disappearance ([1]; pH 2, 90 °C): (1.55 ± 0.04) × 10^−4 s^−1
- rate constants from the initial linear plot relative to those obtained for 1a ([1]; pH above acidic, where the reaction is not first-order, 90 °C, difference largest under neutral conditions): 5 to 20 times
- pKa [2]: 3.3

SMILES: Cc1cn([C@H]2C[C@H](O)[C@@H](CSP(=O)(O)OP(=O)(O)OC[C@H]3O[C@@H](n4cnc5c(N)ncnc54)[C@H](O)[C@@H]3O)O2)c(=O)[nH]c1=O [2a, 5'-thiothymidine 5'-pyrophosphate (P' →5') adenosine]
- pKa [2]: 3.2
- mM consumed (31P NMR) (snake venom (SVPDE); time 1 h): 2.57 mM
- mM consumed (31P NMR) (snake venom (SVPDE); time 2 h): 4.17 mM
- mM consumed (31P NMR) (snake venom (SVPDE); time 4 h): 7.12 mM
- mM consumed (31P NMR) (snake venom (SVPDE); time 15 h): 10 mM
- substrate consumed (digestion) (snake venom (SVPDE)): complete consumption
- substrate consumed (cleaved) (snake venom (SVPDE)): ca. 25%

SMILES: Cc1cn([C@H]2C[C@H](O)[C@@H](C[Se]P(=O)(O)OP(=O)(O)OC[C@H]3O[C@@H](n4cnc5c(N)ncnc54)[C@H](O)[C@@H]3O)O2)c(=O)[nH]c1=O [2b, 5′-deoxy-5′-selenothymidine 5′-pyrophosphate (P′ →5′) adenosine]
- pKa [2]: 3.4
- mM consumed (31P NMR) (snake venom (SVPDE); time 1 h): 2.13 mM
- mM consumed (31P NMR) (snake venom (SVPDE); time 2 h): 3.19 mM
- mM consumed (31P NMR) (snake venom (SVPDE); time 3 h): 3.98 mM
- mM consumed (31P NMR) (snake venom (SVPDE); time 5 h): 4.41 mM
- mM consumed (31P NMR) (snake venom (SVPDE); time 7 h): 4.45 mM
- mM consumed (31P NMR) (snake venom (SVPDE); time 9 h): 4.48 mM
- mM consumed (31P NMR) (snake venom (SVPDE); time 15 h): 4.61 mM
- substrate consumed (digestion) (snake venom (SVPDE)): ca. 45%
- substrate consumed (cleaved) (snake venom (SVPDE)): ~20%

SMILES: Cc1cn([C@H]2C[C@H](O)[C@@H](CSP(=O)(O)O)O2)c(=O)[nH]c1=O [4a]
- time for hydrolysis ([3]; acidic conditions, 25 °C): within hours
- ΔH^‡ of phosphorus-chalcogen bond cleavage [3]: 126.5 kJ/mol
- ΔS^‡ of phosphorus-chalcogen bond cleavage [3]: 79 J mol^−1 K^−1
- k (rate constant for the hydrolysis) ([3]; pH 3, 298 K): 152 10^−6 s^−1
- reactivity difference between 5′-dTSMP (4a) and 5′-TMP (4c) ([3]; pH 3, estimated on the basis of Table 1): approximately 700,000 fold
- k (rate constant for the hydrolysis) ([3]; pH 7, 298 K): 5.19 10^−6 s^−1
- k (rate constant for the hydrolysis) ([3]; pH 7, 308 K): 17.1 10^−6 s^−1
- k (rate constant for the hydrolysis) ([3]; pH 7, 318 K): 58.4 10^−6 s^−1
- k (rate constant for the hydrolysis) ([3]; pH 11, 298 K): 0.34 10^−6 s^−1

SMILES: Cc1cn([C@H]2C[C@H](O)[C@@H](C[Se]P(=O)(O)O)O2)c(=O)[nH]c1=O [4b]
- ΔH^‡ of phosphorus-chalcogen bond cleavage [3]: 110.6 kJ/mol
- ΔS^‡ of phosphorus-chalcogen bond cleavage [3]: 35 J mol^−1 K^−1
- k (rate constant for the hydrolysis) ([3]; pH 3, 298 K): 53.1 10^−6 s^−1
- k (rate constant for the hydrolysis) ([3]; pH 7, 298 K): 16.8 10^−6 s^−1
- k (rate constant for the hydrolysis) ([3]; pH 11, 298 K): 14.4 10^−6 s^−1
- k (rate constant for the hydrolysis) ([4]; pH 7, 303 K): 75.1 10^−6 s^−1
- k (rate constant for the hydrolysis) ([4]; pH 7, 313 K): 297 10^−6 s^−1

SMILES: Cc1cn([C@H]2C[C@H](O)[C@@H](COP(=O)(O)O)O2)c(=O)[nH]c1=O [4c, 5′-TMP, reference compound]
- k (rate constant for the hydrolysis) ([3]; pH 3, 363 K): 2.60 10^−6 s^−1

SMILES: NC(=O)C1=CN([C@@H]2O[C@H](COP(=O)(O)OP(=O)(O)OC[C@H]3O[C@@H](n4cnc5c(N)ncnc54)[C@H](O)[C@@H]3O)[C@@H](O)[C@H]2O)C=CC1 [NADH, reference compound]
- mM consumed (31P NMR) (snake venom (SVPDE); time 1 h): 9.62 mM
- mM consumed (31P NMR) (snake venom (SVPDE); time 2 h): 10 mM
- substrate consumed (cleaved) (snake venom (SVPDE)): Over 95%

SMILES: Cc1cn([C@H]2C[C@H](S[P@](=O)(O)O[P@](=O)(O)OC[C@H]3O[C@@H](n4cnc5c(N)ncnc54)[C@H](O)[C@@H]3O)[C@@H](CO)O2)c(=O)[nH]c1=O [compound 3]
- half-life of the total disappearance ([1]; 90 °C): tens of days
- rate constant for dethyminylation ([1]; neutral pH, 90 °C, non-linear regression on thymine formation, rather approximate): (2.2 ± 0.2) × 10^−7 s^−1

SMILES: Nc1ncnc2c1ncn2[C@@H]1O[C@H](CS[P@](=O)(O)O[P@](=O)(O)OC[C@@H](O)[C@@H](O)[C@@H](O)C=O)[C@@H](O)[C@H]1O [compound 13]
- rate constant for the decomposition of the deadenylation (depurination) product ([1]; pH 2, 90 °C): 3.1e-05 s⁻¹
- rate constant for the formation of the deadenylation (depurination) product ([1]; pH 2, 90 °C): 1.9e-05 s⁻¹

SMILES: Cc1cn([C@H]2C[C@H](S[P@](=O)(O)O[P@](=O)(O)OC[C@@H](O)[C@@H](O)[C@@H](O)C=O)[C@@H](CO)O2)c(=O)[nH]c1=O [compound 18]
- rate constant for the decomposition of the deadenylation (depurination) product ([1]; pH 2, 90 °C): 2e-05 s⁻¹
- rate constant for the formation of the deadenylation (depurination) product ([1]; pH 2, 90 °C): 2.3e-05 s⁻¹
